Data on 79 compounds can be found in the METLIN SMRT retention time set (Domingo-Almenara et al. 2019).

This data set in a line: gradient 5% acetonitrile 3 min, to 50% in 2 min, to 85% in 15 min, held 3 min, 100 µL/min. Particulars: column: Zorbax Extend-C18 2.1 x 50 mm; eluents: water / acetonitrile, 0.1% formic acid. An outline of the steps:
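Mixtures of ~100 pure standards were chromatographed on a Zorbax Extend-C18 column (2.1 × 50 mm, 1.8 μm) at 100 μL/min using water and acetonitrile, each with 0.1% formic acid. Detection used a quadrupole time-of-flight mass spectrometer in positive and negative ionization mode, and data collection spanned 3 months. Retention time was obtained from adduct peaks picked computationally and each checked manually.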
In turn, `O=S(=O)(NCc1ccc(F)cc1Cl)c1c[nH]c2ncccc12` displayed an RP-LC retention time of 748 s.

Compound `CNC(=O)C1CN(S(=O)(=O)c2cccc(F)c2)CC12CCCC2` (centres undefined) gave an RP-LC retention time of 778 s.

`CCC1CCCCN1CCCNC(=O)c1sc2nc3n(c(=O)c2c1C)CCC3` (centres undefined) displayed an RP-LC retention time of 598 s.

`COc1cccc(NS(=O)(=O)c2ccc(-c3nnc(C4CCC4)o3)o2)c1`: the RP-LC retention time turned out to be 881 s.

The compound `O=C(NCc1ccccc1)Nc1cnc2c(c1)CCC2` yielded an RP-LC retention time of 557 s.

`COc1ccc(NC(=O)N2CCC3(C2)C(=O)N(C)c2ccccc23)cc1` (centres undefined) displayed an RP-LC retention time of 745 s.

For the compound `Cc1ccc(F)cc1NC(=O)CSc1ccc(N2CCCC(C(=O)NC3CC3)C2)nn1` (centres undefined), the RP-LC retention time turned out to be 664 s.

`CC(C)(C)c1ccc2c(c1)N(Cc1nc(-c3cccc(F)c3)no1)C(=O)CO2` registered an RP-LC retention time of 1240 s.

With `CCS(=O)(=O)N1CC(=O)N(c2ccc(C)cc2C)C(C)(C(=O)NC2CCCCCC2)C1` (centres undefined), the RP-LC retention time is 1000 s.

`CC(=O)Nc1ccc(NC(=O)[C@H]2C[C@H]3CCCN3[C@@]23C(=O)N(C)c2ccccc23)cc1` displayed an RP-LC retention time of 572 s.

On to `Cc1ccc(-n2nc(N3CCN(C(=O)Nc4ccc(Cl)cc4)CC3)ccc2=O)cc1`, for which the RP-LC retention time was found to be 894 s.

`O=C(CCC(=O)N1CC(n2cnnc2C2CCOCC2)C1)N1CCOCC1`: the RP-LC retention time came to 550 s.

On to `COC(=O)c1c(C)[nH]c(C(=O)N2CCCC(C(=O)NCCC(C)C)C2)c1C` (centres undefined), for which the RP-LC retention time worked out at 730 s.

In turn, `C#CCOCC(O)CN1CCN(c2cc(Cl)ccc2C)CC1` (centres undefined) had an RP-LC retention time of 577 s.

Turning to `O=C(Nc1ccc(F)cc1Cl)c1cnc(-c2ccc(F)cc2)nc1-c1ccncc1`, the RP-LC retention time was 951 s.

Turning to `O=C(C1=NN(Cc2ccc(F)cc2)c2ccc(Cl)cc2S1(=O)=O)N1CCOCC1`, the RP-LC retention time is 873 s.

Compound `Cc1ccc2ncn(C3CCN(S(=O)(=O)c4ccc(F)c(F)c4)CC3)c(=O)c2c1` returned an RP-LC retention time of 946 s.

In turn, `O=C(O)c1ccc(N2CCCC2)c(NC(=O)c2cccs2)c1` showed an RP-LC retention time of 710 s.

`Nc1ccc2c(c1)Cc1cc(Cl)c(Cl)cc1-2` showed an RP-LC retention time of 963 s.

Compound `CCOc1ccc2sc(NS(=O)(=O)c3ccc(N)cc3)nc2c1` displayed an RP-LC retention time of 797 s.

The compound `COc1ccc(Nc2c(-c3ccccc3)nc3cnc(Br)cn23)cc1OC` came in with an RP-LC retention time of 856 s.

In turn, `COc1ccc(C(=O)N2CCC3(CC2)N=C(c2ccc(Br)cc2)NO3)c(OC)c1` yielded an RP-LC retention time of 886 s.

In turn, `CCC1CCCCN1c1nc(-c2ccc([N+](=O)[O-])cc2)nc2ccccc12` (centres undefined) displayed an RP-LC retention time of 1030 s.

`CCOC(=O)c1[nH]c(C)c(C(=O)C(C)N(Cc2ccc(F)cc2)C(=O)C2CC2)c1C` (centres undefined) gave an RP-LC retention time of 917 s.

With `CCn1cc(C)c(C(=O)O)c1CC(=O)Nc1cc(Cl)c(OC)cc1OC`, the RP-LC retention time worked out at 901 s.

`CCCc1cc(N2CCN(C(=O)c3nccc4ccccc34)CC2)nc2nncn12` yielded an RP-LC retention time of 619 s.

On to `Clc1ccccc1-c1csc(Cc2nc(-c3ccc4c(c3)OCO4)no2)n1`, for which the RP-LC retention time came to 1200 s.

Compound `CCc1ccccc1NS(=O)(=O)c1ccc(-c2nnc(C3CCC3)o2)o1` yielded an RP-LC retention time of 960 s.

As for `O=C(NCC(=O)N1CCc2ccccc21)Nc1ccccc1C(F)(F)F`, the RP-LC retention time came out at 890 s.

`c1ccc(N2CCN(c3ccc4nncn4n3)CC2)nc1`: the RP-LC retention time worked out at 537 s.

Compound `CCCN(CC1CCOC1)C(=O)Nc1cc(C)ccc1C` (centres undefined) showed an RP-LC retention time of 796 s.

In turn, `Cc1ccccc1Nc1c(-c2c(F)cccc2Cl)nc2c(C)cccn12` returned an RP-LC retention time of 774 s.

`O=C(Nc1cnc(N2CCCC2)nc1)c1ccsc1` showed an RP-LC retention time of 658 s.

The compound `O=C(NCc1cc(-c2ccc3c(c2)OCO3)on1)c1c(F)cccc1Cl` registered an RP-LC retention time of 785 s.

`COc1ccc(NC(=O)Cn2nc3c(Oc4cccc(Cl)c4)nccn3c2=O)cc1` registered an RP-LC retention time of 859 s.

Turning to `O=C(CN1C(=O)C(C(=O)N2CCCC2)Sc2ccccc21)Nc1cccc(F)c1` (centres undefined), the RP-LC retention time was 1020 s.

The compound `CCc1ccc(CNC(=O)c2cn(-c3cc(-c4nc(C)no4)ccn3)cn2)cc1` registered an RP-LC retention time of 805 s.

In the case of `Cc1nn(CC(=O)N2CCC3(CC2)OCCO3)c(=O)c2nc(-c3ccccc3)sc12`, the RP-LC retention time amounted to 970 s.

As for `Cc1ccc(-n2nc(CO)c(C(=O)NC(C)C)n2)cc1C`, the RP-LC retention time is 983 s.

The compound `COc1cccc(CN2CC[C@@](C)(O)[C@H](N3CCCC3)C2)c1` displayed an RP-LC retention time of 519 s.

`Cc1cccc(NC(=O)CSc2nc(=O)n(CCN(C)C)c3c2CCC3)c1` returned an RP-LC retention time of 570 s.

`CC1=C(c2ccc(C)cc2)S(=O)(=O)N=C1N1CCCN(C(=O)C2CCCCC2)CC1` yielded an RP-LC retention time of 600 s.

As for `Cc1cc(N2CCOCC2)n2nc(CN3CCC(Cc4ccccc4)CC3)nc2n1`, the RP-LC retention time is 641 s.

`CCOCC(=O)N1CC(c2nc(-c3ccc(F)cc3)no2)C2(CCOCC2)C1` (centres undefined) gave an RP-LC retention time of 771 s.

Turning to `Cc1cnn(Cc2nc(-c3ccc(NC(=O)Cc4ccccc4C)cc3)oc2C)c1`, the RP-LC retention time stood at 954 s.

In turn, `CCn1c(=O)c2cc(C(=O)N3CCC(Cc4ccccc4)CC3)nn2c2ccccc21` displayed an RP-LC retention time of 1150 s.

Consider `CC(C)(C)C(=O)NC1CCN(C(=O)c2ccccc2)C1` (centres undefined), for which the RP-LC retention time was found to be 676 s.

For the compound `O=C(NCC1(c2cccs2)CCOCC1)c1cc(=O)c2ccccc2o1`, the RP-LC retention time amounted to 716 s.

On to `CC1CCCN(S(=O)(=O)c2cc(C(=O)NCCC3=CCCCC3)n(C)c2)C1` (centres undefined), for which the RP-LC retention time is 1140 s.

Take `Cc1ccc(NS(=O)(=O)c2cc3n(c2)CCN(C)C3=O)c(F)c1`: the RP-LC retention time worked out at 1070 s.

Turning to `O=C(Nc1nnc(SCc2nnc(-c3ccccc3)o2)s1)c1ccc(Br)o1`, the RP-LC retention time worked out at 870 s.

As to `O=C(Cn1nc2nc(Nc3ccc(F)cc3)ccn2c1=O)N1CCCC1`, the RP-LC retention time was found to be 621 s.

As for `CS(=O)(=O)N1CCC(C(=O)NCC2CCN(C(=O)Oc3ccccc3)CC2)CC1`, the RP-LC retention time was determined as 663 s.

`CCOC(=O)CC1(NC(=O)N2CCc3c(c(C(=O)N4CCCCC4)nn3C)C2)CCCCC1` gave an RP-LC retention time of 810 s.

Compound `Cc1ccn2cc(-c3ccc(NC(=O)c4ccc([N+](=O)[O-])cc4)cc3)nc2n1` yielded an RP-LC retention time of 655 s.

With `O=S(=O)(c1cccc2cccnc12)N1CC(c2noc(C3CCCN3CC3CC3)n2)C1` (centres undefined), the RP-LC retention time amounted to 634 s.

With `CN1CCN(C(CNC(=O)c2ccc(Br)o2)c2ccc(N(C)C)cc2)CC1` (centres undefined), the RP-LC retention time stood at 566 s.

In the case of `Cc1nc(-c2ccccc2)cc2nn(CC(=O)NCc3ccccc3)c(=O)n12`, the RP-LC retention time came to 873 s.

The compound `CCc1ccc(NC(=O)CCc2c(C)n(C)c3nc(-c4ccccc4)nn3c2=O)cc1` showed an RP-LC retention time of 893 s.

Regarding `COC(=O)C(C)NC(=O)NCc1cccn1Cc1cc(C)ccc1C` (centres undefined), the RP-LC retention time is 885 s.

For `O=C1CCN(C(=O)c2cccs2)CCCC(CO)CCN1` (centres undefined), the RP-LC retention time is 581 s.

In the case of `COc1cccc2cc(C(=O)Nc3nnc(Cc4ccc(Cl)s4)o3)oc12`, the RP-LC retention time amounted to 860 s.

The compound `Cc1cccc(N2CCN(C(=O)C3CCN(c4ncnc5c4oc4ccccc45)CC3)CC2)c1C` gave an RP-LC retention time of 1030 s.

Regarding `CN(C)S(=O)(=O)c1ccc(-c2nnc(C(=O)NCC3CCCCC3)o2)cc1`, the RP-LC retention time was 937 s.

`CCOc1ccc(N2C(=O)C3N=NN(Cc4nc(-c5ccc(OC)c(OC)c5)no4)C3C2=O)cc1` (centres undefined) had an RP-LC retention time of 906 s.

As for `CCc1ccc(-n2c(CN3CCN(C(=O)NC(C)(C)C)CC3)nc3cccnc32)cc1`, the RP-LC retention time came out at 687 s.

The compound `Cc1cc(C)c(S(=O)(=O)N2CCC(C(=O)NCc3csc(-c4ccccc4)n3)CC2)c(C)c1` yielded an RP-LC retention time of 1050 s.

The compound `Cc1ncoc1C(=O)N1CC(Oc2ccc(-c3nc(-c4ccccc4)no3)cc2)C1` returned an RP-LC retention time of 1040 s.

In the case of `Cc1nn(CCC(=O)NCCC2=CCCCC2)c(=O)c2nn(-c3ccccc3)c(C)c12`, the RP-LC retention time was 867 s.

Regarding `CC1=C(C(=O)OC(C)C)C(c2cccc([N+](=O)[O-])c2)C(C(=O)OC2CN(C(c3ccccc3)c3ccccc3)C2)=C(N)N1` (centres undefined), the RP-LC retention time was 947 s.

In the case of `Cn1c(-c2cccc(C(=O)NC3CCCCCC3)c2)nc2cccnc21`, the RP-LC retention time came out at 780 s.

As to `Cc1oc(-c2[nH]ncc2C(=O)N2CCCC2)cc1S(=O)(=O)NCc1ccccc1Cl`, the RP-LC retention time is 715 s.

Consider `CCS(=O)(=O)c1ncc(Cl)c(C(=O)Nc2ccc(Oc3ccccc3)cc2)n1`, for which the RP-LC retention time stood at 929 s.

In turn, `CC(C)Oc1ccccc1CN1C[C@@H]2C(=O)N(C)C(=O)[C@@H]2C1` came in with an RP-LC retention time of 616 s.

In the case of `Cc1cc(Nc2nc3ccncc3n(Cc3ccccc3)c2=O)ccc1Cl`, the RP-LC retention time was 747 s.

Turning to `COc1ccc(NC(=O)CSc2ccc(N3CCCC(C(=O)NC4CC4)C3)nn2)c(OC)c1` (centres undefined), the RP-LC retention time was found to be 642 s.

For `CCCN1C(=O)COc2ccc(-c3noc(COc4cccc(C)c4)n3)cc21`, the RP-LC retention time stood at 1170 s.

The compound `O=C(Cn1nc2c(Oc3ccc(F)cc3)nccn2c1=O)NC1CCCCC1` yielded an RP-LC retention time of 804 s.

Consider `O=C(Cc1cccc(F)c1)N1CCc2nc(-c3ccc(Cl)cc3)ncc2C1`, for which the RP-LC retention time came to 1060 s.
